Data taken from ChEMBL document CHEMBL1128401, “Structure-activity relationships in the 8-amino-6,7,8,9-tetrahydro-3H-benz[e]indole ring system. 1. Effects of substituents in the aromatic system on serotonin and dopamine receptor subtypes” (J Med Chem, 1995).
Activity calls are given as the source filed them. No cut-off for these calls is given here.

Columns and labels:
[1] = target: 5-hydroxytryptamine receptor 1D (Homo sapiens, UniProt P28221); experiment: Binding affinity against 5-hydroxytryptamine 1D receptor alpha expressed in CHO-K1 cells, using [3H]-5-HT as the radioligand.; assay type: cell-based; conditions: read-out: Ki
Rattus norvegicus [2] = experiment: The compound was tested in vivo for DOPA accumulation in hemispheres (cortex) against reserpine-pretreated rats;I= inactive at the highest dose tested; assay type: functional, organism-based
Rattus norvegicus [3] = experiment: compound was tested in vivo for 5-HTP accumulation in limbic system against reserpine-pretreated rats; assay type: functional
Rattus norvegicus [4] = experiment: compound was tested in vivo for 5-HTP accumulation in hemispheres (cortex) against reserpine-pretreated rats; assay type: functional
D(2) dopamine receptor [5] = target: T1, D(2) dopamine receptor (Rattus norvegicus, UniProt P61169); experiment: Binding affinity against Dopamine receptor D2 from CHO-K1 cells, using [3H]U-86,170 as the radioligand.; assay type: cell-based
[6] = target: T2, 5-hydroxytryptamine receptor 1A (Rattus norvegicus, UniProt P19327); experiment: Binding affinity against 5-hydroxytryptamine 1A receptor from CHO-K1 cells, using [3H]8-OH-DPAT as the radioligand.; assay type: cell-based
T2 sequence (P19327 whole entry): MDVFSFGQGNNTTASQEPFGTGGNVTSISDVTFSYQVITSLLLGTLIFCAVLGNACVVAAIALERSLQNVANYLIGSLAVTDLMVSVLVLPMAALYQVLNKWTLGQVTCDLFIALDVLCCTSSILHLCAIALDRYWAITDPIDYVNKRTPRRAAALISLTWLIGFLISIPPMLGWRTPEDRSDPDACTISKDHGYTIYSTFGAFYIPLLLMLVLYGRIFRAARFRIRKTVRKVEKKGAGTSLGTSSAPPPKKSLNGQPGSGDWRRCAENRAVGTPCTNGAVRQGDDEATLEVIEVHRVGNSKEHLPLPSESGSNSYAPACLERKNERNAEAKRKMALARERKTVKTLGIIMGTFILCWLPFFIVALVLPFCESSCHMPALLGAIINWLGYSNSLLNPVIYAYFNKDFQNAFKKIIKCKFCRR

D(3) dopamine receptor [7] = target: T3, D(3) dopamine receptor (Rattus norvegicus, UniProt P19020); experiment: Binding affinity against Dopamine receptor D3 from CHO-K1 cells, using [3H]spiperone as the radioligand.; assay type: cell-based; conditions: read-out: Ki
Rattus norvegicus [8] = experiment: compound was tested in vivo for 5-HTP accumulation in corpus striatum against reserpine-pretreated rats, activity expressed as ED50; assay type: functional
Rattus norvegicus [9] = experiment: compound was tested in vivo for 5-HTP accumulation in limbic system against reserpine-pretreated rats; inactive at the highest dose tested; assay type: functional
[10] = target: 5-hydroxytryptamine receptor 1B (Homo sapiens, UniProt P28222); experiment: Binding affinity against 5-hydroxytryptamine 1D receptor beta expressed in CHO-K1 cells, using [3H]5-HT as the radioligand.; assay type: cell-based; conditions: read-out: Ki
Rattus norvegicus [11] = experiment: compound was tested in vivo for 5-HTP accumulation in corpus striatum against reserpine-pretreated rats, activity expressed as ED50; inactive at the highest dose tested; assay type: functional
Rattus norvegicus [12] = experiment: compound was tested in vivo for 5-HTP accumulation in hemispheres (cortex) against reserpine-pretreated rats; inactive at the highest dose tested; assay type: functional
D(2) dopamine receptor [13] = target: T1, D(2) dopamine receptor; experiment: Binding affinity against Dopamine receptor D2 expressed in CHO-K1 cells, using [3H]U-86170 as the radioligand.; assay type: cell-based
Rattus norvegicus [14] = experiment: compound was tested in vivo for 5-HTP accumulation in limbic system against reserpine-pretreated rats,; assay type: functional
Rattus norvegicus [15] = experiment: compound was tested in vivo for DOPA accumulation in corpus striatum against reserpine-pretreated rats; P=significant partial reduction only at the highest dose tested (12.5).; assay type: functional, organism-based
D(3) dopamine receptor [16] = target: T3, D(3) dopamine receptor; experiment: The compound was tested in vitro for binding affinity against cloned mammalian Dopamine receptor D3 expressed in CHO cells by, using [3H]spiperone as radioligand; assay type: cell-based
Rattus norvegicus [17] = experiment: compound was tested in vivo for 5-HTP accumulation in hemispheres (cortex) against reserpine-pretreated rats(; assay type: functional
Rattus norvegicus [18] = experiment: The compound was tested in vivo for DOPA accumulation in hemispheres (cortex) against reserpine-pretreated rats; I= inactive at the highest dose tested (12.5).; assay type: functional, organism-based
D(3) dopamine receptor [19] = target: T3, D(3) dopamine receptor; experiment: Compound was tested for binding affinity against Dopamine receptor D3 expressed in CHO-K1 cells, using [3H]spiperone as the radioligand.;I = inactive (less than 50% inhibition at 1 uM).; assay type: cell-based
Rattus norvegicus [20] = experiment: Compound was tested in vivo for DOPA accumulation in corpus striatum against reserpine-pretreated rats; assay type: functional
Rattus norvegicus [21] = experiment: In vivo for 5-HTP accumulation in hemispheres (cortex) against reserpine-pretreated rats.; assay type: functional
Rattus norvegicus [22] = experiment: The Compound was tested in vivo for DOPA accumulation in hemispheres (cortex) against reserpine-pretreated rats;I= inactive at the highest dose tested (50).; assay type: functional, organism-based
Rattus norvegicus [23] = experiment: In vivo for DOPA accumulation in limbic system against reserpine-pretreated rats.; assay type: functional
Rattus norvegicus [24] = experiment: In vivo for 5-HTP accumulation in corpus striatum against reserpine-pretreated rats.; assay type: functional
Rattus norvegicus [25] = experiment: In vivo for 5-HTP accumulation in limbic system against reserpine-pretreated rats.; assay type: functional
Rattus norvegicus [26] = experiment: Oral bioavailability in rat
Rattus norvegicus [27] = experiment: The compound was tested in vivo for DOPA accumulation in limbic system against reserpine-pretreated rats;I= inactive at the highest dose tested; assay type: functional, organism-based
Rattus norvegicus [28] = experiment: Bioavailability in male Sprague-Dawley rats, after the po administration at a dose of 20.0(pmol/g/h); assay type: ADME, organism-based; conditions: in vivo
[29] = tmax in hours at a iv dose of 1.0(pmol/g/h).; assay type: ADME, organism-based; conditions: in vivo
Rattus norvegicus [30] = experiment: Bioavailability in male Sprague-Dawley rats, after the iv administration at a dose of 1.0(pmol/g/h); assay type: ADME, organism-based; conditions: in vivo
[31] = tmax in hours at a po dose of 20.0(pmol/g/h).; assay type: ADME, organism-based; conditions: in vivo
Rattus norvegicus [32] = experiment: compound was tested in vivo for DOPA accumulation in corpus striatum against reserpine-pretreated rats; I=inactive at the highest dose tested; assay type: functional, organism-based

T1 sequence (P61169 whole entry): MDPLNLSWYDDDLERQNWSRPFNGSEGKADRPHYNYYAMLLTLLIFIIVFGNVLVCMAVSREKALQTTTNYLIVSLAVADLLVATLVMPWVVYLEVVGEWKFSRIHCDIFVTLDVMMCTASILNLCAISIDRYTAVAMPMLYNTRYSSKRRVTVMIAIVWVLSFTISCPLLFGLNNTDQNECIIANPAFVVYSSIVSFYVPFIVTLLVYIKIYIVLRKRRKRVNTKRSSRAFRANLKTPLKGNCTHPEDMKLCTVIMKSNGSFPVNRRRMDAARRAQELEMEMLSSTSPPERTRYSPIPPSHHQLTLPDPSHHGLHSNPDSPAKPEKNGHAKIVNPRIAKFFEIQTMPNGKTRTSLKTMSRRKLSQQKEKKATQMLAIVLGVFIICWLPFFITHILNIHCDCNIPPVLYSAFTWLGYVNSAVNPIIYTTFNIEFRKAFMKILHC
Chain of 5-hydroxytryptamine receptor 1B (P28222 whole entry): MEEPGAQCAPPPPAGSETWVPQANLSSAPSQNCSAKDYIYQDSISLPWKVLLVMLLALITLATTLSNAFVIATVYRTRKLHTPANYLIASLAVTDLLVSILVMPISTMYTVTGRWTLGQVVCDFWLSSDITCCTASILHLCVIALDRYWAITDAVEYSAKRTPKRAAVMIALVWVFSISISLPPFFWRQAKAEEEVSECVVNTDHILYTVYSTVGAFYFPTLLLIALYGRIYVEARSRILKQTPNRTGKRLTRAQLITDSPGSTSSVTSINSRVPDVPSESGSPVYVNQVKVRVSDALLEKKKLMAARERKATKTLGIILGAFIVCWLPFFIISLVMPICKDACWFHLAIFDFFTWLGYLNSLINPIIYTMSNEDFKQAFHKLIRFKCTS
T3 sequence (P19020 whole entry): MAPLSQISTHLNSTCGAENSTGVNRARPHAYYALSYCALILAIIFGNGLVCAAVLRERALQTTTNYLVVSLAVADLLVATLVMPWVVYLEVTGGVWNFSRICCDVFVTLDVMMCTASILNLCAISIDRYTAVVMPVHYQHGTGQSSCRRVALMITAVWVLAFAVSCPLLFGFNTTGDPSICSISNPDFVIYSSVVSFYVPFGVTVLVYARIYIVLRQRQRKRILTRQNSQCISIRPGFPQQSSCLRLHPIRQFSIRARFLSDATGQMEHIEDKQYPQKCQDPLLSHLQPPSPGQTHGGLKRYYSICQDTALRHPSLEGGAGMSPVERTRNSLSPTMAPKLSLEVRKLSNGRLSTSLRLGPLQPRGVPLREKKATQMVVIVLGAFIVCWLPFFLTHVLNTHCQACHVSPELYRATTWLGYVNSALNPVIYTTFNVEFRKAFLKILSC
Chain of 5-hydroxytryptamine receptor 1D (P28221 whole entry): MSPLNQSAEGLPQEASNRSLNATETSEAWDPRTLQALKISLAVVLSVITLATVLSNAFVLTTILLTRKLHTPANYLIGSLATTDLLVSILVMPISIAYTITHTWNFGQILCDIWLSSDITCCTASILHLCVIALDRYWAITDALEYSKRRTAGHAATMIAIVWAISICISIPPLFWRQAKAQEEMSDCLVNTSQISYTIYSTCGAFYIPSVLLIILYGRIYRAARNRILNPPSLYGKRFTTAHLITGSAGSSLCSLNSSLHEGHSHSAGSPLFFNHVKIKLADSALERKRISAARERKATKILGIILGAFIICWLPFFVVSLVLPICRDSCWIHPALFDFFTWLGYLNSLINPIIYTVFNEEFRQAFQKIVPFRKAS

| SMILES | Ki [1] [nM] | ED50 (Rattus norvegicus [2]) | Ki (D(2) dopamine receptor [5]) [nM] | Ki [6] [nM] | Ki (D(3) dopamine receptor [7]) [nM] | ED50 (Rattus norvegicus [8]) [µmol/kg] | Ki [10] [nM] | Ki (D(2) dopamine receptor [13]) [nM] | also measured |
| --- | --- | --- | --- | --- | --- | --- | --- | --- | --- |
| CCCN(CCC)[C@@H]1CCc2cc(F)c3[nH]cc(C=O)c3c2C1 | 4.4 | inactive | 48 | 0.3 | 55 | 0.083 |  |  | ED50 (Rattus norvegicus [3]): 0.078 µmol/kg; ED50 (Rattus norvegicus [4]): 0.084 µmol/kg |
| CCCN(CCC)[C@H]1CCc2cc(F)c3[nH]cc(C=O)c3c2C1 | 34 | inactive | 199 | 0.8 | 78 |  | 179 |  | ED50 (Rattus norvegicus [9]): 0.23 µmol/kg; ED50 (Rattus norvegicus [11]): 0.17 µmol/kg; ED50 (Rattus norvegicus [12]): 0.32 µmol/kg |
| CCCN(CCC)C1CCc2cc(F)c3[nH]cc(C=O)c3c2C1 (stereo not drawn) | 4.6 |  |  | 0.5 |  | 0.042 | 82 | 65 | ED50 (Rattus norvegicus [14]): 0.079 µmol/kg; ED50 (Rattus norvegicus [15]): Weak activity; Ki (D(3) dopamine receptor [16]): 65 nM; ED50 (Rattus norvegicus [17]): 0.027 µmol/kg; ED50 (Rattus norvegicus [18]): inactive |
| CCCN(CCC)C1CCc2ccc3[nH]cc(S(C)(=O)=O)c3c2C1 (stereo not drawn) | 52 |  |  | 11 |  |  | 373 | 265 | Ki (D(3) dopamine receptor [19]): Not Active |
| CCCN(CCC)C1CCc2ccc3[nH]cc(C(=O)C(F)(F)F)c3c2C1 (stereo not drawn) | 112 |  | 544 | 20 | 675 |  | 279 |  | ED50 (Rattus norvegicus [20]): 12.6 µmol/kg; ED50 (Rattus norvegicus [21]): 16.3 µmol/kg; ED50 (Rattus norvegicus [22]): inactive; ED50 (Rattus norvegicus [23]): 20.8 µmol/kg; ED50 (Rattus norvegicus [24]): 6.5 µmol/kg; ED50 (Rattus norvegicus [25]): 12.6 µmol/kg |
| CCCN(CCC)C1CCc2cccc(O)c2C1 (stereo not drawn) [8-OH-DPAT] |  | inactive | 1130 |  | 333 |  |  |  | F (Rattus norvegicus [26]): 2.4%; ED50 (Rattus norvegicus [27]): inactive; AUC (Rattus norvegicus [28]): 104 pM ml-1; Tmax [29]: 3 min; AUC (Rattus norvegicus [30]): 213 pM ml-1; Tmax [31]: 29 min; ED50 (Rattus norvegicus [32]): inactive |
